Laboratory results: patent US11873291B2, “Quinoline cGAS antagonist compounds” (ImmuneSensor Therapeutics, Inc., priority 2020, dated 2024)
Like-named read-outs stand apart in the source and are kept apart here.

Key:
[1] = system: cGAS activity in Reporter THP1 cell line; assay: Cellular assay to measure cGAS activity: ISRE-Gaussia luciferase reporter THP1 cells transfected with ISD; assay type: cell-based; settings: Homo sapiens
Method in brief: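 THP1 ISRE-Gaussia luciferase reporter cells (0.3×10^6/well) pre-incubated 5 min with compound serial dilutions, then lipofectamine-transfected with 2 μg/mL ISD (45 bp DNA) or mock. Secreted luciferase read 16 h later with 1 μM coelenterazine at pH 6.5; IC50 from fold increase over mock. Specificity counter-screen used 2 μg/mL poly(I:C) or Sendai virus 50 Unit/mL.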

[2] = molecular target: T1, recombinant human cGAS (aa147-522) (Homo sapiens, UniProt Q8N884); assay: In vitro inhibition assay of cGAS activity (ATP consumption, KinaseGlo Max); assay type: biochemical
T1 construct: recombinant human cGAS (aa147-522); His6-SUMO (cleaved yes); made in house; host or cells: E. coli BL21/pLys
Method in brief: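 IC50 came from plotting % ATP consumption against log compound concentration, with leftover ATP detected by KinaseGlo Max chemiluminescence. Reactions ran 20 min at 37 °C with 1.5 μg/mL human cGAS (aa147-522), 6.6 μM ATP, 0.1 mM GTP and 0.01 mg/mL DNA at pH 7.5.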

[3] = THP-1, untitled table after Table 4 (continuation)
[4] = Table 3, read-out: cGAS Inhibition Results IC50
[5] = THP-1, Table 4, Gaussia luciferase
[6] = Table 2, read-out: cGAS Inhibition Results IC50

T1 sequence (Q8N884 147-522): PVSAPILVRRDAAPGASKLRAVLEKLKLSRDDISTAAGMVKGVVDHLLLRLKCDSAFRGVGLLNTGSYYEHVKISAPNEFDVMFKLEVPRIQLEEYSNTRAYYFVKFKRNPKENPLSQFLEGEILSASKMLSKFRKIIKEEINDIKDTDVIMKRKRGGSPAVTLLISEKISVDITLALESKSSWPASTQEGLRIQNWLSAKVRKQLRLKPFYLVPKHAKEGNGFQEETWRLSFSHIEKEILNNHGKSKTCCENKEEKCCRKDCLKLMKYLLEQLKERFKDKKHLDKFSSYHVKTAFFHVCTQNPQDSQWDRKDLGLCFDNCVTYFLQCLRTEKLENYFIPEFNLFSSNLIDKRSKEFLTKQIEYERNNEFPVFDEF

Row | SMILES | IC50 [1, 3] [nM] | IC50 [2, 4] [nM] | IC50 [1, 5] [nM] | IC50 [2, 6] [nM]
1 | O=C(O)CCOCCN(CCO)c1cc(-n2ccnc2)c2ccc(Cl)c(Cl)c2n1 [I-838] | > 10000 | < 2000 | – | –
2 | O=C(O)CCOC[C@H]1CC2CCC1N2c1cc(-n2ccnc2)c2ccc(Cl)c(Cl)c2n1 (stereo partly drawn) [I-811] | < 2000 | < 2000 | – | –
3 | O=C(O)CCOCCC[C@@H]1CCCN1c1cc(-n2ccnc2)c2ccc(Cl)c(Cl)c2n1 [I-677] | – | < 2000 | < 2000 | –
4 | C=C1C[C@@H](COCCC(=O)O)N(c2cc(-n3ccnc3)c3ccc(Cl)c(Cl)c3n2)C1 [I-801] | < 2000 | < 2000 | – | –
5 | O=C(O)CCOC[C@@H]1C[C@@H]2CCCC[C@@H]2N1c1cc(-n2ccnc2)c2ccc(Cl)c(Cl)c2n1 [I-808] | < 2000 | < 2000 | – | –
6 | O=C(O)COCC[C@@H]1CCCN1c1cc(-n2ccnc2)c2ccc(Cl)c(Cl)c2n1 [I-668] | – | < 2000 | < 2000 | –
7 | O=C(O)CCOCCN(c1cc(-n2ccnc2)c2ccc(Cl)c(Cl)c2n1)C1CCCCC1 [I-836] | < 2000 | < 2000 | – | –
8 | O=C(O)CCOC[C@@H]1CCCN1c1cc(-n2ccnc2)c2ccc(Cl)c(Br)c2n1 [I-862] | < 2000 | < 2000 | – | –
9 | CCOC(=O)[C@@H]1CCCN1c1cc(-n2ccnc2)c2ccc(Cl)c(Cl)c2n1 [I-594] | – | 2000 to 30000 | 2000 to 10000 | –
10 | O=C(O)CCOCc1ccccc1-c1cc(-n2ccnc2)c2ccc(Cl)c(Cl)c2n1 [I-841] | > 10000 | < 2000 | – | –
11 | COC(=O)C(C)COC[C@@H]1CCCN1c1cc(-n2ccnc2)c2ccc(Cl)c(Cl)c2n1 (stereo partly drawn) [I-720] | – | 2000 to 30000 | < 2000 | –
12 | O=C(O)[C@@H]1[C@@H]2C[C@@H]2CN1c1cc(-n2ccnc2)c2ccc(Cl)c(Cl)c2n1 [I-470] | – | < 2000 | 2000 to 10000 | –
13 | O=C(O)C1CCCCC1OC[C@@H]1CCCN1c1cc(-n2ccnc2)c2ccc(Cl)c(Cl)c2n1 (stereo partly drawn) [I-815] | 2000 to 10000 | < 2000 | – | –
14 | O=C(O)CCO[C@@H]([C@@H]1CCCN1c1cc(-n2ccnc2)c2ccc(Cl)c(Cl)c2n1)C(F)(F)F [I-722] | – | < 2000 | 2000 to 10000 | –
15 | O=C(O)CCCC[C@@H]1CCCN1c1cc(-n2ccnc2)c2ccc(Cl)c(Cl)c2n1 [I-683] | – | < 2000 | < 2000 | –
16 | COC(=O)CCC(=O)NNc1cc(-n2ccnc2)c2ccc(Cl)c(Cl)c2n1 [I-758] | > 10000 | 2000 to 30000 | – | –
17 | NC(=O)[C@@H]1CCCN1c1cc(-n2ccnc2)c2ccc(Cl)c(Cl)c2n1 [I-448] | – | – | > 10000 | < 2000
18 | O=C(O)C[C@@H]1CCN1c1cc(-n2ccnc2)c2ccc(Cl)c(Cl)c2n1 [I-461] | – | < 2000 | > 10000 | –
19 | O=C(O)CCOCCOc1cc(-n2ccnc2)c2ccc(Cl)c(Cl)c2n1 [I-828, 3-(2-((7,8-dichloro-4-(1H-imidazol-1-yl)quinolin-2-yl)oxy)ethoxy)propanoic acid] | > 10000 | 2000 to 30000 | – | –
20 | O=C(O)CCOC[C@@H]1C[C@H]2C[C@H]2N1c1cc(-n2ccnc2)c2ccc(Cl)c(Cl)c2n1 [I-805] | < 2000 | < 2000 | – | –
21 | O=C(O)CCNC(=O)[C@@H]1[C@@H](O)CCN1c1cc(-n2ccnc2)c2ccc(Cl)c(Cl)c2n1 [I-784, 3-((2S,3S)-1-(7,8-dichloro-4-(1H-imidazol-1-yl)quinolin-2-yl)-3-hydroxypyrrolidine-2-carboxamido)propanoic acid] | > 10000 | < 2000 | – | –
22 | O=C(O)c1cnn(CCNc2cc(-n3ccnc3)c3ccc(Cl)c(Cl)c3n2)c1 [I-889] | > 10000 | < 2000 | – | –
23 | NC(=O)CNC(=O)C[C@@H]1CCCN1c1cc(-n2ccnc2)c2ccc(Cl)c(Cl)c2n1 [I-539] | – | < 2000 | 2000 to 10000 | –
24 | O=C(O)CCOCC1COCCN(c2cc(-n3ccnc3)c3ccc(Cl)c(Cl)c3n2)C1 (stereo not drawn) [I-868] | 2000 to 10000 | < 2000 | – | –
25 | CCCCOC(=O)[C@@H]1[C@@H](O)CCN1c1cc(-n2ccnc2)c2ccc(Cl)c(Cl)c2n1 [I-601] | – | 2000 to 30000 | < 2000 | –
26 | O=C(O)CCOC[C@@H]1C[C@@H](c2ccccc2)CN1c1cc(-n2ccnc2)c2ccc(Cl)c(Cl)c2n1 [I-802] | < 2000 | < 2000 | – | –

Continued, values first:

Row | IC50 [1, 3] [nM] | IC50 [2, 4] [nM] | IC50 [1, 5] [nM] | IC50 [2, 6] [nM] | SMILES
27 | 2000 to 10000 | < 2000 | – | – | O=C(O)CCOCC1(CNc2cc(-n3ccnc3)c3ccc(Cl)c(Cl)c3n2)CC1 [I-829]
28 | < 2000 | 2000 to 30000 | – | – | COC(=O)Cc1cc(F)cc(CNc2cc(-n3ccnc3)c3ccc(Cl)c(Cl)c3n2)c1 [I-890, methyl 2-(3-(((7,8-dichloro-4-(1H-imidazol-1-yl)quinolin-2-yl)amino)methyl)-5-fluorophenyl)acetate]
29 | – | 2000 to 30000 | 2000 to 10000 | – | O=C(O)CCOCC(Cc1ccccc1)Nc1cc(-n2ccnc2)c2ccc(Cl)c(Cl)c2n1 (stereo not drawn) [I-695]
30 | – | < 2000 | < 2000 | – | O=C(O)CCOC[C@@H]1CCCN(c2cc(-n3ccnc3)c3ccc(Cl)c(Cl)c3n2)C1 [I-750]
31 | – | – | 2000 to 10000 | < 2000 | COc1ccc(-c2cc(-n3ccnc3)c3ccc(Cl)c(Cl)c3n2)cc1C(=O)O [I-39]
32 | – | < 2000 | < 2000 | – | CN(CCOCCC(=O)O)c1cc(-n2ccnc2)c2ccc(Cl)c(Cl)c2n1 [I-694]
33 | – | < 2000 | < 2000 | – | O=C(O)CCCC[C@@H]1CCCN1c1cc(-c2cn[nH]c2)c2ccc(Cl)c(Cl)c2n1 [I-684]
34 | – | 2000 to 30000 | 2000 to 10000 | – | COC(=O)[C@@H]1CCCN1c1cc(-n2ccnc2)c2ccc(Cl)c(Cl)c2n1 [I-593]
35 | < 2000 | < 2000 | – | – | O=C(O)CCOCC1CN(c2cc(-n3ccnc3)c3ccc(Cl)c(Cl)c3n2)CCCO1 (stereo not drawn) [I-867]
36 | – | < 2000 | < 2000 | – | O=C(O)CCCCOC[C@@H]1CCCN1c1cc(-n2ccnc2)c2ccc(Cl)c(Cl)c2n1 [I-676]
37 | > 10000 | < 2000 | – | – | O=C(O)CNC(=O)C[C@@H]1[C@@H](O)CCN1c1cc(-n2ccnc2)c2ccc(Cl)c(Cl)c2n1 [I-788, (2-((2R,3S)-1-(7,8-dichloro-4-(1H-imidazol-1-yl)quinolin-2-yl)-3-hydroxypyrrolidin-2-yl)acetyl)glycine]
38 | – | < 2000 | < 2000 | – | C[C@H]1C[C@@H](COCCC(=O)O)N(c2cc(-n3ccnc3)c3ccc(Cl)c(Cl)c3n2)C1 [I-708]
39 | < 2000 | < 2000 | – | – | O=C(O)CCOCC1CCCCCN1c1cc(-n2ccnc2)c2ccc(Cl)c(Cl)c2n1 (stereo not drawn) [I-865]
40 | < 2000 | < 2000 | – | – | O=C(O)CCOCCN(Cc1ccccc1)c1cc(-n2ccnc2)c2ccc(Cl)c(Cl)c2n1 [I-837]
41 | – | 2000 to 30000 | 2000 to 10000 | – | COC(=O)[C@@H]1[C@@H]2[C@H](CN1c1cc(-n3ccnc3)c3ccc(Cl)c(Cl)c3n1)C2(C)C [I-471]
42 | – | < 2000 | < 2000 | – | CC(CC(=O)O)OC[C@@H]1CCCN1c1cc(-n2ccnc2)c2ccc(Cl)c(Cl)c2n1 (stereo partly drawn) [I-717]

Row | IC50 [1, 3] [nM] | IC50 [2, 4] [nM] | IC50 [1, 5] [nM] | IC50 [2, 6] [nM] | SMILES
43 | – | 2000 to 30000 | < 2000 | – | COC(=O)COCC[C@@H]1CCCN1c1cc(-n2ccnc2)c2ccc(Cl)c(Cl)c2n1 [I-669]
44 | – | 2000 to 30000 | > 10000 | – | COC(=O)[C@@H]1[C@H](O)CCN1c1cc(-n2ccnc2)c2ccc(Cl)c(Cl)c2n1 [I-597]
45 | 2000 to 10000 | < 2000 | – | – | CCOC(=O)CNC(=O)C[C@@H]1[C@@H](O)CCN1c1cc(-n2ccnc2)c2ccc(Cl)c(Cl)c2n1 [I-787, ethyl (2-((2R,3S)-1-(7,8-dichloro-4-(1H-imidazol-1-yl)quinolin-2-yl)-3-hydroxypyrrolidin-2-yl)acetyl)glycinate]
46 | – | > 30000 | > 10000 | – | COC(=O)CCNC[C@@H]1CCCN1c1cc(-n2ccnc2)c2ccc(Cl)c(Cl)c2n1 [I-753, methyl (S)-3-(((1-(7,8-dichloro-4-(1H-imidazol-1-yl)quinolin-2-yl)pyrrolidin-2-yl)methyl)amino)propanoate]
47 | < 2000 | < 2000 | – | – | O=C(O)CCOC[C@@H]1C[C@H](C(F)(F)F)CN1c1cc(-n2ccnc2)c2ccc(Cl)c(Cl)c2n1 [I-793]
48 | – | – | 2000 to 10000 | < 2000 | O=C(O)[C@@H]1CCCN1c1cc(-c2cn[nH]c2)c2ccc(Cl)c(Cl)c2n1 [I-435]
49 | 2000 to 10000 | 2000 to 30000 | – | – | N[C@H]1CCN(c2cc(-n3ccnc3)c3ccc(Cl)c(Cl)c3n2)C1 [I-765, (S)-1-(7,8-dichloro-4-(1H-imidazol-1-yl)quinolin-2-yl)pyrrolidin-3-amine]
50 | < 2000 | < 2000 | – | – | O=C(O)CCOCCN(c1cc(-n2ccnc2)c2ccc(Cl)c(Cl)c2n1)C1CC1 [I-834]
51 | < 2000 | < 2000 | – | – | O=C(O)C1CCCC1OC[C@@H]1CCCN1c1cc(-n2ccnc2)c2ccc(Cl)c(Cl)c2n1 (stereo partly drawn) [I-816]
52 | < 2000 | < 2000 | – | – | O=C(O)CCOCC12CC(CN1c1cc(-n3ccnc3)c3ccc(Cl)c(Cl)c3n1)C2 [I-800]
53 | < 2000 | < 2000 | – | – | O=C(O)CCOC[C@@H]1CCCN1c1cc(-c2cn[nH]c2)c2cc(Cl)cc(Cl)c2n1 [I-853]
54 | < 2000 | < 2000 | – | – | COc1cc(Cl)c2nc(N3CCC[C@H]3COCCC(=O)O)cc(-n3ccnc3)c2c1 [I-875]
55 | – | < 2000 | 2000 to 10000 | – | COC(=O)COC[C@@H]1CN(c2cc(-c3cn[nH]c3)c3ccc(Cl)c(Cl)c3n2)CCO1 [I-751]
56 | < 2000 | < 2000 | – | – | CC(C)N(CCOCCC(=O)O)c1cc(-n2ccnc2)c2ccc(Cl)c(Cl)c2n1 [I-833]
57 | 2000 to 10000 | < 2000 | – | – | O=C(O)CCOC[C@@H]1Cc2ccccc2N1c1cc(-n2ccnc2)c2ccc(Cl)c(Cl)c2n1 [I-806]
